# Laboratory results as given in publication PMC8002351, “Triterpenes and Phenolic Compounds from the Fungus Fuscoporia torulosa: Isolation, Structure Determination and Biological Activity” (Molecules, 2021).
# Legend:
# [1] = target: T1, P-glycoprotein (P-gp) (Homo sapiens, UniProt P08183); assay: Rhodamine 123 accumulation assay (flow cytometry); format: cell-based; design: key to FAR (fluorescence activity ratio): FAR = (Colo320 treated/control)/(Colo205 treated/control); details: for FSC / SSC: Colo 320; for FAR (fluorescence activity ratio): Colo 320, rhodamine-123
# T1 construct: Colo 320/MDR-LRP (ATCC-CCL-220.1) resistant to anticancer agents expressing ABCB1
# T1 sequence (P08183 whole entry): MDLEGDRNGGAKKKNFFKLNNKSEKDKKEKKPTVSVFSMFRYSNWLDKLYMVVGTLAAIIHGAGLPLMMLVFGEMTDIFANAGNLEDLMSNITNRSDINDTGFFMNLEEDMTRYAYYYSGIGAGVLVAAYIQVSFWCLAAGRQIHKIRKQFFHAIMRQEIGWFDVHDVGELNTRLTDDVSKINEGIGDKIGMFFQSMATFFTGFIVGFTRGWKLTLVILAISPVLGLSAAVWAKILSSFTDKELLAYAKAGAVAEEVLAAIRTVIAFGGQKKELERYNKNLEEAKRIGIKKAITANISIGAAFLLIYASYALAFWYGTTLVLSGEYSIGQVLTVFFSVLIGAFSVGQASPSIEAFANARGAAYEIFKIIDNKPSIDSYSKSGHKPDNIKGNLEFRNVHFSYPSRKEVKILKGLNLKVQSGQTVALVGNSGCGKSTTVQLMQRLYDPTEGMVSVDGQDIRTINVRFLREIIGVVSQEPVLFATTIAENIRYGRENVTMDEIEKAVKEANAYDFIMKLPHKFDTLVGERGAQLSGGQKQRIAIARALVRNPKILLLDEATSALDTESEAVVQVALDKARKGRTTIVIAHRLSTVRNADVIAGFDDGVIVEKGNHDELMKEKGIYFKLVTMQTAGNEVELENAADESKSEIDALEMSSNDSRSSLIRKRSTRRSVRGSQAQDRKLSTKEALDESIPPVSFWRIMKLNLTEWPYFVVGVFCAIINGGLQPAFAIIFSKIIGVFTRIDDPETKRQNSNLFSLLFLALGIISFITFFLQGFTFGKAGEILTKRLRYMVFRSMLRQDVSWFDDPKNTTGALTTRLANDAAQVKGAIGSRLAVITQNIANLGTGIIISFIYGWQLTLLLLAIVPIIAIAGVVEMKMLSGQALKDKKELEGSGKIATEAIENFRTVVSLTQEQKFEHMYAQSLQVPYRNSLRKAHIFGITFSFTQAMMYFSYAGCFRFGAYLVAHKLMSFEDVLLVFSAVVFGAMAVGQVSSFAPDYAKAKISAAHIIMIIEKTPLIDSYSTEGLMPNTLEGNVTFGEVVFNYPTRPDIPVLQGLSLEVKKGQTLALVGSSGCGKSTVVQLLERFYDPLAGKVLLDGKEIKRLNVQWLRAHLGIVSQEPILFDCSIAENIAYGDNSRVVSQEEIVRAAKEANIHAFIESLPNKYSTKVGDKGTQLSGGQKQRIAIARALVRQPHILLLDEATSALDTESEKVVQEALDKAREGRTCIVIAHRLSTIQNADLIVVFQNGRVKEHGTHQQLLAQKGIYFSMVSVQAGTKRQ
# Procedure: The cell numbers of the human colon adenocarcinoma cell lines were adjusted to 2 × 10^6 cells/mL, re-suspended in serum-free RPMI 1640 medium, and distributed in 0.5 mL aliquots into Eppendorf centrifuge tubes. The tested compounds were added at concentrations of 2 or 20 μM, and the samples were incubated for 10 min at room temperature. Tariquidar was applied as positive control at 0.2 μM. DMSO at 2% v/v was used as solvent control. Next, 10 µL (5.2 µM final concentration) of the fluorochrome and ABCB1 substrate rhodamine 123 (Sigma) were added to the samples and the cells were incubated for a further 20 min at 37 °C, washed twice, and re-suspended in 1 mL PBS for analysis. The fluorescence of the cell population was measured with a PartecCyFlow® flow cytometer (Partec, Münster, Germany). The fluorescence activity ratio was calculated as the quotient between the FL-1 of the treated/untreated resistant Colo 320 cell line over the treated/untreated sensitive Colo 205 cell line according to the following equation [31]:(1) FAR = Colo320treated/Colo320control/Colo205treated/Colo205control
# [2] = tested on: Colo 205; assay: Assay for cytotoxic effect (MTT); format: cell-based, human; details: for IC50: Homo sapiens, sensitive Colo 205 cells, MTT, 24 h
# Procedure: (§1) The human colon adenocarcinoma cell lines, the Colo 205 (ATCC-CCL-222) doxorubicin-sensitive parent and Colo 320/MDR-LRP (ATCC-CCL-220.1) resistant to anticancer agents expressing ABCB1, were purchased from LGC Promochem (Teddington, UK). The cells were cultured in RPMI-1640 medium supplemented with 10% heat-inactivated fetal bovine serum (FBS), 2 mM L-glutamine, 1 mM Na-pyruvate, 100 mM Hepes, nystatin, and a penicillin–streptomycin mixture in concentrations of 100 U/L and 10 mg/L, respectively. The MRC-5 (ATCC CCL-171) human embryonic lung fibroblast cell line (LGC Promochem) was cultured in EMEM medium, supplemented with 1% nonessential amino acid (NEAA) mixture, 10% heat-inactivated FBS, 2 mM L-glutamine, 1 mM Na-pyruvate, nystatin, and a penicillin–streptomycin mixture in concentrations of 100 U/L and 10 mg/L, respectively. The cell lines were incubated in a humidified atmosphere (5% CO2, 95% air) at 37 °C.
# (§2) The effects of increasing concentrations of the compounds on cell growth were tested in 96-well flat-bottomed microtiter plates. The two-fold serial dilutions of the tested compounds were made starting with 100 μM. Then, 10^4 of human colonic adenocarcinoma cells in 100 μL of the medium (RPMI-1640) were added to each well, except for the medium control wells. The adherent human embryonic lung fibroblast cell line (10^4/well) was seeded in EMEM medium in 96-well flat-bottomed microtiter plates for 4 h before the assay. The serial dilutions of the compounds were made in a separate plate starting with 100 μM, and then transferred to the plates containing the adherent corresponding cell line. Culture plates were incubated at 37 °C for 24 h; at the end of the incubation period, 20 μL of MTT (thiazolyl blue tetrazolium bromide) solution (from a 5 mg/mL stock solution) were added to each well. After incubation at 37 °C for 4 h, 100 μL of sodium dodecyl sulfate (SDS) solution (10% SDS in 0.01 M HCl) were added to each well and the plates were further incubated at 37 °C overnight. Cell growth was determined by measuring the optical density (OD) at 540 nm (ref. 630 nm) with a Multiscan EX ELISA reader (Thermo Labsystems, Cheshire, WA, USA). Inhibition of cell growth was expressed as IC50 values, defined as the inhibitory dose that reduces the growth of the cells exposed to the tested compounds by 50%. IC50 values and the SD of triplicate experiments were calculated using GraphPad Prism software version 5.00 for Windows with nonlinear regression curve fit (GraphPad Software, San Diego, CA, USA; www.graphpad.com). The statistical analysis of data was performed using GraphPad Prism software version 5.00, applying the two-tailed t-test.
# [3] = tested on: Colo 320; assay: Assay for cytotoxic effect (MTT); format: cell-based, human; details: for IC50: Homo sapiens, resistant Colo 320 cells, MTT, 24 h
# Procedure: as §1, §2
# [4] = tested on: MRC-5; assay: Assay for cytotoxic effect (MTT); format: cell-based, human; details: for IC50: Homo sapiens, MRC5, normal MRC-5 embryonal fibroblast cells, MTT, 24 h
# Procedure: as §1, §2
# [5] = tested on: Colo 320; assay: Checkerboard combination assay with doxorubicin; format: cell-based, human; details: for Fraction affected: Colo 320
# Procedure: A checkerboard microplate method was applied to study the effect of drug interactions between the compound 8 and the chemotherapeutic drug doxorubicin. The assay was carried out on Colo 320 colon adenocarcinoma cell line. The final concentration of the compounds and doxorubicin used in the combination experiment was chosen in accordance with their cytotoxicity towards this cell line. The dilutions of doxorubicin were made in a horizontal direction for the 100 μL volume, and the dilutions of the compounds were made vertically in the microtiter plate for the 50 μL volume. Then, 6 × 10^3 of Colo 320 cells in 50 μL of the medium were added to each well, except for the medium control wells. The plates were incubated for 72 h at 37 °C in 5% CO2 atmosphere. The cell growth rate was determined after MTT staining. At the end of the incubation period, 20 μL of MTT solution (from a stock solution of 5 mg/mL) were added to each well. After incubation at 37 °C for 4 h, 100 μL of SDS solution (10% in 0.01 M HCI) were added to each well and the plates were further incubated at 37 °C overnight. OD was measured at 540 nm (ref. 630 nm) with a Multiscan EX ELISA reader. Combination index (CI) values at 50% of the growth inhibition dose (ED50) were determined using CompuSyn software (ComboSyn, Inc., Paramus, NJ, USA) to plot four to five data points at each ratio. CI values were calculated by means of the median-effect equation, according to the Chou–Talalay method, where CI < 1, CI = 1, and CI > 1 represent synergism, additive effect (or no interaction), and antagonism, respectively.
# [6] = tested on: Escherichia coli ATCC 25922; assay: Minimum inhibitory concentration by microdilution method; format: cell-based; details: ATCC25922, broth dilution, 18 h
# [7] = tested on: Salmonella enterica serovar Typhimurium 14028s; assay: as above; format: cell-based; details: broth dilution, 18 h
# [8] = tested on: Staphylococcus aureus ATCC 25,923; assay: as above; format: cell-based; details: ATCC25, broth dilution, 18 h
# [9] = tested on: S. aureus 27,213 (methicillin and ofloxacin resistant clinical isolate); assay: as above; format: cell-based; details: Staphylococcus aureus; broth dilution, 18 h
smiles,measurement,setting,value
"COc1cc2c(cc1OC)CN(CCc1ccc(NC(=O)c3cc(OC)c(OC)cc3NC(=O)c3cnc4ccccc4c3)cc1)CC2 [Tariquidar, reference compound]",FSC,[1]; 0.2 μM,1945
same,SSC,[1]; 0.2 μM,837
same,FAR (fluorescence activity ratio),[1]; 0.2 μM,5.533
"COc1cccc2c1C(=O)c1c(O)c3c(c(O)c1C2=O)C[C@@](O)(C(=O)CO)C[C@@H]3O[C@H]1C[C@H](N)[C@H](O)[C@H](C)O1 [Doxorubicin, doxorubicin]",IC50,[2],2.46 ± 0.26 µM
same,IC50,[3],7.44 ± 0.2 µM
same,IC50,[4],> 20 µM
same,Fraction affected,[5]; Doxo alone 0.135 uM,0.6475
same,Fraction affected,[5]; Doxo alone 0.269 uM,0.7257
same,Fraction affected,[5]; Doxo alone 0.539 uM,0.8038
same,Fraction affected,[5]; Doxo alone 1.078 uM,0.9263
same,Fraction affected,[5]; Doxo alone 4.311 uM,0.9749
same,Dose Reduction Index (DRI) for experimental values,"[5]; Fa 0.6829, combination FuTo III + Doxo",1.374
same,Dose Reduction Index (DRI) for experimental values,"[5]; Fa 0.741889, combination FuTo III + Doxo",0.937
same,Dose Reduction Index (DRI) for experimental values,"[5]; Fa 0.80679, combination FuTo III + Doxo",0.702
same,Dose Reduction Index (DRI) for experimental values,"[5]; Fa 0.912987, combination FuTo III + Doxo",0.475
same,Dm (median-effect dose) in the combination,"[5]; FuTo III:Doxo ratio 11:1, dose of the named component, Colo 320, 72 h",0.04246 µM
same,"Dm (median-effect dose), drug alone","[5]; single drug, Colo 320, 72 h, CompuSyn",0.08504 µM
"CC(C)=CC[C@H](O)[C@@H](C)[C@H]1CC[C@@]2(C)C3=C(CC[C@]12C)[C@@]1(C)CC[C@@](C)(C(=O)O)[C@@H]1CC3 [Compound 1, 22S-hydroxy-8,24-dien-3-norlanosta-28-oic acid]",cytotoxic effect (in words),"[2]; Colo 205, applied concentration up to 100 μM",did not show any significant effect
same,IC50,[2],> 100 µM
same,cytotoxic effect (in words),"[3]; Colo 320, applied concentration up to 100 μM",did not show any significant effect
same,IC50,[3],> 100 µM
same,IC50,[4],> 100 µM
same,cytotoxic effect (in words),"[4]; MRC-5, applied concentration up to 100 μM",did not show any significant effect
same,FSC,[1]; 20 μM,2005
same,SSC,[1]; 20 μM,851
same,FAR (fluorescence activity ratio),[1]; 20 μM,1.139
same,MIC,[6],> 100 µM
same,MIC,[7],> 100 µM
same,MIC,[8],> 100 µM
same,MIC,[9],> 100 µM
